Values joined by “and” are separate entries in the source; they are usually repeats but may differ in a detail not shown here. Equal entries are not always repeated. Structures can show the parent of a compound that is named as a salt.
Columns and labels:
[1] = tested on: MCF-7 breast adenocarcinoma cells; assay: MCF-7 Proliferation Assay (tritiated thymidine); assay type: cell-based; conditions: Homo sapiens, MCF7; MCF-7 cells, 48 hours with drug, tritiated thymidine pulse 4 hours
Procedure: MCF-7 breast adenocarcinoma cells (ATCC HTB 22) were maintained in MEM (minimal essential medium, phenol red-free, Sigma, St. Louis, Mo.) supplimented with 10% fetal bovine serum (FBS) (V/V), L-glutamine (2 mM), sodium pyruvate (1 mM), HEPES {(N-[2-hydroxyethyl]piperazine-N′-[2-ethanesulfonic acid]10 mM}, non-essential amino acids and bovine insulin (1 ug/mL) (maintenance medium). Ten days prior to assay, MCF-7 cells were switched to maintenance medium supplemented with 10% dextrancoated charcoal stripped fetal bovine serum (DCC-FBS) assay medium) in place of 10% FBS to deplete internal stores of steroids. MCF-7 cells were removed from maintenance flasks using cell dissociation medium (Ca++/Mg++ free HBSS (phenol red-free) supplemented with 10 mM HEPES and 2 mM EDTA). Cells were washed twice with assay medium and adjusted to 80,000 cells/mL. Approximately 100 μL (8,000 cells) were added to flat-bottom microculture wells (Costar 3596) and incubated at 37° C. in a 5% CO2 humidified incubator for 48 hours to allow for cell adherence and equilibration after transfer. Serial dilutions of drugs or DMSO as a diluent control were prepared in assay medium and 50 μL transferred to triplicate microcultures followed by 50 μL assay medium for a final volume of 200 μL. After an additional 48 hours at 37° C. in a 5% CO2 humidified incubator, microcultures were pulsed with tritiated thymidine (1 uCi/well) for 4 hours. Cultures were terminated by freezing at −70° C. for 24 hours followed by thawing and harvesting of microcultures using a Skatron Semiautomatic Cell Harvester. Samples were counted by liquid scintillation using a Wallac BetaPlace β counter. Results in Table 7 below show the IC50 for certain compounds of the present invention.

[2] = tested on: Uterine Eosinophil Peroxidase (EPO); assay: Uterine Eosinophil Peroxidase (EPO) Assay on uteri of dosed OVX rats; assay type: in vivo, Sprague Dawley rats; parameters: unit not given here
Description: (§1) Seventy-five day old female Sprague Dawley rats (weight range of 200 to 225 g) were obtained from Charles River Laboratories (Portage, Mich.). The animals were either bilaterally ovariectomized (OVX) or exposed to a Sham surgical procedure at Charles River Laboratories, and then shipped after one week. Upon arrival, they were housed in metal hanging cages in groups of 3 or 4 per cage and had ad libitum access to food (calcium content approximately 0.5%) and water for one week. Room temperature was maintained at 22.2°±1.7° C. with a minimum relative humidity of 40%. The photoperiod in the room was 12 hours light and 12 hours dark.
(§2) Dosing Regimen Tissue Collection. After a one week acclimation period (therefore, two weeks post-OVX) daily dosing with test compound was initiated. 17α-ethynyl estradiol or the test compound were given orally, unless otherwise stated, as a suspension in 1% carboxymethylcellulose or dissolved in 20% cyclodextrin. Animals were dosed daily for 4 days. Following the dosing regimen, animals were weighed and anesthetized with a ketamine: Xylazine (2:1, V:V) mixture and a blood sample was collected by cardiac puncture. The animals were then sacrificed by asphyxiation with CO2, the uterus was removed through a midline incision, and a wet uterine weight was determined.
Uterine Eosinophil Peroxidase (EPO) Assay. Uteri were kept at 4° C. until time of enzymatic analysis. The uteri were then homogenized in 50 volumes of 50 mM Tris buffer (pH−8.0) containing 0.005% Triton X-100. Upon addition of 0.01% hydrogen peroxide and 10 mM o-phenylenediamine (final concentrations) in Tris buffer, increase in absorbance was monitored for one minute at 450 nm. The presence of eosonophils in the uterus is an indication of estrogenic activity of a compound. The maximal velocity of a 15 second interval was determined over the initial, linear portion of the reaction curve.

[3] = tested on: ovariectomized (OVX) rats; assay: Osteoporosis Test Procedure: femur bone density in OVX rats after 35 days of dosing; assay type: in vivo, Sprague Dawley rats; conditions: for Bone Density: mean ± SEM
Description: Seventy-five day old female Sprague Dawley rats (weight range of 200 to 225 g) were obtained from Charles River Laboratories (Portage, Mich.). The animals were either bilaterally ovariectomized (OVX) or exposed to a Sham surgical procedure at Charles River Laboratories, and then shipped after one week. Upon arrival, they were housed in metal hanging cages in groups of 3 or 4 per cage and had ad libitum access to food (calcium content approximately 0.5%) and water for one week. Room temperature was maintained at 22.2°±1.7° C. with a minimum relative humidity of 40%. The photoperiod in the room was 12 hours light and 12 hours dark. Following the General Preparation Procedure, infra, the rats were treated daily for 35 days (6 rats per treatment group) and sacrificed by decapitation on the 36th day. The 35 day time period was sufficient to allow maximal reduction in bone density, measured as described herein. At the time of sacrifice, the uteri were removed, dissected free of extraneous tissue, and the fluid contents were expelled before determination of wet weight in order to confirm estrogen deficiency associated with complete ovariectomy. […] The uteri were then placed in 10% neutral buffered formalin to allow for subsequent histological analysis. The right femurs were excised and scanned at the distal metaphysis 1 mm from the patellar groove with single photon absorptiometry. Results of the densitometer measurements represent a calculation of bone density as a function of the bone mineral content and bone width. In accordance with the above procedures, compounds of the present invention and ethynyl estradiol (EE2) in 20% hydroxypropyl β-cyclodextrin were orally administered to test animals. Data presented in Tables 5 and 6 below are the results of these treatments compared to intact and ovariectomized test animals. Results are reported as the mean±the standard error of the mean.

[4] = tested on: ovariectomized (OVX) rats; assay: Serum cholesterol analysis in ovariectomized rats, 4 days of dosing; assay type: in vivo, Sprague Dawley rats; conditions: oral; for Serum Cholesterol (% decrease vs. OVX): daily for 4 days
Description: as §1, §2
Cholesterol Analysis. Blood samples were allowed to clot at room temperature for 2 hours, and serum was obtained following centrifugation for 10 minutes at 3000 rpm. Serum cholesterol was determined using a Boehringer Mannheim Diagnostics high performance cholesterol assay. Briefly the cholesterol was oxidized to cholest-4-en-3-one and hydrogen peroxide. The hydrogen peroxide was then reacted with phenol and 4-aminophenazone in the presence of peroxidase to produce a p-quinone imine dye, which was read spectrophotemetrically at 500 nm. Cholesterol concentration was then calculated against a standard curve. The entire assay was automated using a Biomek Automated Workstation.

[5] = tested on: ovariectomized (OVX) rats; assay: Uterine wet weight in ovariectomized rat post-menopausal model, 4 days of dosing; assay type: in vivo, Sprague Dawley rats; conditions: oral; for Uterine Weight (% increase vs. OVX): daily for 4 days
Procedure: In the examples illustrating the methods, a post-menopausal model was used in which effects of different treatments upon circulating lipids were determined.
as §1, §2

[6] = female, Sprague Dawley, rat, in vivo, po, 0.1 mg/kg, 4 days
[7] = female, Sprague Dawley, rat, in vivo, po, 1 mg/kg, 4 days
[8] = female, Sprague Dawley, rat, in vivo, po, 10 mg/kg, 4 days
[9] = Table 5, oral, 0.01 mg/kg, OVX control 26.18, intact control 70.22, * P <= 0.05
[10] = Table 5, oral, 0.1 mg/kg, OVX control 26.18, intact control 70.22, * P <= 0.05

SMILES | IC50 [1] | Uterine EPO (V. max) [2, 6] | Uterine EPO (V. max) [2, 7] | Uterine EPO (V. max) [2, 8] | Serum Cholesterol (% decrease vs. OVX) ([4]; dose 0.1 mg/kg) | Serum Cholesterol (% decrease vs. OVX) ([4]; dose 1.0 mg/kg) | Serum Cholesterol (% decrease vs. OVX) ([4]; dose 10.0 mg/kg) | Uterine Weight (% increase vs. OVX) ([5]; dose 0.1 mg/kg) | Uterine Weight (% increase vs. OVX) ([5]; dose 1.0 mg/kg) | Uterine Weight (% increase vs. OVX) ([5]; dose 10.0 mg/kg) | further results
COc1ccc(-c2sc3cc(OC)ccc3c2Cc2ccc(OCCN3CCCCC3)cc2)cc1 [(p)-Ex16, [6-Methoxy-2-(4-Methoxyphenyl)Benzo[B]Thien-3-Yl][4-[2-(1-Piperidinyl)Ethoxy]Phenyl]Methane Hydrochloride] | 50 nM | 5.8 | 5.4 | 6.2 | 26.8% | 59.4% | 72.3% | −13.5% | −13.7% | −24.6% | Bone Density [3, 9]: 26.78 ± 4.98 mg/cm/cm; Bone Density [3, 10]: 43.30 ± 7.86 mg/cm/cm; Bone Density ([3]; Table 5, oral, 1.0 mg/kg, OVX control 26.18, intact control 70.22, * P <= 0.05): 33.62 ± 5.87 mg/cm/cm
C#C[C@]1(O)CC[C@H]2[C@@H]3CCc4cc(O)ccc4[C@H]3CC[C@@]21C [EE2, 17α-ethynyl estradiol, reference compound] |  |  |  |  | 89.5% and 91.8% |  |  | 111.5% and 178.3% |  |  | Uterine EPO (V. max) ([2]; OVX rats, oral, daily for 4 days, dose 0.1 mg/kg): 246.0 and 173.3; Bone Density ([3]; Table 5, oral, 100 μg/kg, OVX control 26.18, intact control 70.22, * P <= 0.05): 47.94 ± 3.71 mg/cm/cm; Bone Density ([3]; Table 6, oral, 100 μg/kg, OVX control 32.46, intact control 81.27, * P <= 0.05): 47.31 ± 6.42 mg/cm/cm; Prevention of femur bone loss caused by ovariectomy (in words) ([3]; oral): prevented this loss; Effect on serum cholesterol compared to ovariectomized control animals (in words) ([4]; EE2 at 0.1 mg/Kg/day): decrease in serum cholesterol; Effect on uterine weight compared to ovariectomized test animals (in words) ([5]; EE2 at 0.1 mg/Kg/day): substantially greater than the uterine weight of ovariectomized test animals
Oc1ccc(-c2sc3cc(O)ccc3c2C(O)c2ccc(OCCN3CCCCC3)cc2)cc1 (centres unmarked) [(b)-Ex2, [6-Hydroxy-2-(4-Hydroxyphenyl)Benzo[B]Thien-3-Yl][4-[2-(1-Piperidinyl)Ethoxy]Phenyl]Methanol] |  | 7.4 | 4.7 | 14.5 | 22.2% | 43.5% | 61.6% | 52.2% | 39.1% | 45.6% | 
C[C@]12CC[C@@H]3c4ccc(O)cc4CC[C@H]3[C@@H]1CCC2=O [Estrone, reference compound] | 1 nM |  |  |  |  |  |  |  |  |  | 
Oc1ccc(-c2sc3cc(O)ccc3c2Cc2ccc(OCCN3CCCCC3)cc2)cc1 [(k)-Ex11, [6-Hydroxy-2-(4-Hydroxyphenyl)Benzo[B]Thien-3-Yl][4-[2-(1-Piperidinyl)Ethoxy]Phenyl]Methane Hydrochloride] |  | 7.3 | 4.8 | 5.5 | 43.7% | 63.0% | 60.7% | 4.0% | 23.1% | 5.2% | 
CCCCS(=O)(=O)Oc1ccc(-c2sc3cc(OS(=O)(=O)CCCC)ccc3c2Cc2ccc(OCCN3CCCCC3)cc2)cc1 [(r)-Ex18, [6-{n-Butylsulfonoyloxy}-2-(4-{n-Butylsulfonoyloxy}Phenyl)Benzo[B]Thien-3-Yl][4-[2-(1-Piperidinyl)Ethoxy]Phenyl]Methane Hydrochloride] | 1000 nM | 1.8 | 3.5 | 2.8 | 65.4% | 67.0% | 67.9% | −16.6% | −18.4% | −19.5% | 
CC(C)(C)C(=O)Oc1ccc(-c2sc3cc(OC(=O)C(C)(C)C)ccc3c2Cc2ccc(OCCN3CCCCC3)cc2)cc1 [(q)-Ex17, [6-{1,1,1-Trimethylacetyloxy}-2-(4-{1,1,1-Trimethylacetyloxy}Phenyl)Benzo[B]Thien-3-Yl][4-[2-(1-Piperidinyl)Ethoxy]Phenyl]Methane Hydrochloride] | 0.01 nM | 3.1 | 3.0 | 2.8 | 55.8% | 56.8% | 58.8% | −22.7% | −32.4% | −25.2% | Bone Density [3, 9]: 17.63 ± 2.94 mg/cm/cm; Bone Density [3, 10]: 24.77 ± 4.65 mg/cm/cm; Bone Density ([3]; Table 6, oral, 0.01 mg/kg, OVX control 32.46, intact control 81.27, * P <= 0.05): 36.44 ± 44 mg/cm/cm; Bone Density ([3]; Table 6, oral, 1.0 mg/kg, OVX control 32.46, intact control 81.27, * P <= 0.05): 36.07 ± 4.20 mg/cm/cm
O=C(Oc1ccc(-c2sc3cc(OC(=O)c4ccccc4)ccc3c2Cc2ccc(OCCN3CCCCC3)cc2)cc1)c1ccccc1 [(s)-Ex21, [6-Benzoyloxy-2-(4-Benzoyloxyphenyl)Benzo[B]Thien-3-Yl][4-[2-{1-Piperidinyl}Ethoxy]Phenyl]Methane] | 0.01 nM | 1.8 | 2.6 | 2.3 | 66.2% | 63.4% | 64.4% | −19.6% | −28.7% | −26.6% | 

— patent US6399634B1, “Benzothiophene compounds, compositions, and methods” (Eli Lilly and Company, priority 1994, dated 2002)
